# Laboratory results: ChEMBL document CHEMBL1201862, “PubChem BioAssay data set” (2004)
# The source made the active and inactive calls.
# Columns and labels:
# [1] = NIH-3T3 fibroblast cytotoxicity, dose response, cytotoxicity control, cell-based, fluorescence, Alamar Blue, secondary assay (AID 2327); assay type: functional;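 also: NIH-3T3 mouse fibroblasts cultured with fluconazole at 8 µg/mL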
# [2] = inhibitors of intracellular T. cruzi replication, confirmation, NIH3T3 host cells, beta-gal luminescence (AID 2044); assay type: functional, cell-based;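 also: intracellular parasites grown in NIH/3T3 mouse fibroblasts as host cells; luminescent beta-galactosidase reporter signal from transgenic T. cruzi replicating inside host cells; inhibitors lower the luminescence signal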
# [3] = cytotoxicity toward NIH3T3 fibroblasts, dose response, counter-screen, cell-based, ATP luminescence, mouse fibroblasts (AID 2010); assay type: functional;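 also: cells exposed to compound for about 90 hours before reading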
# [4] = C. albicans growth with fluconazole, confirmation, fluorescence, retest (AID 2467); assay type: functional, cell-based
# Cytochrome P450 2C9 = Cytochrome P450 2C9 (Homo sapiens, UniProt P11712)
# Cytochrome P450 2C19 = Cytochrome P450 2C19 (Homo sapiens, UniProt P33261); assay: Cytochrome panel assay with activity outcomes. Panel member name: p450-cyp2c19 Compounds with AC50 equal or less than 10 uM are considered active; assay type: functional; details: read-out: AC50
# Cytochrome P450 3A4 = Cytochrome P450 3A4 (Homo sapiens, UniProt P08684);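 also: CYP3A4 tested as one member of a cytochrome P450 panel screen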
# [5] = inhibitors of SNCA 5'UTR-driven reporter translation, confirmation, H4 neuroglioma cells, luminescence (AID 1988); assay type: functional, cell-based
# [6] = inhibitors of firefly luciferase expression or activity, dose response, H4 neuroglioma cells, luminescence (AID 1990); assay type: functional, cell-based
# [7] = Luminescence Cell-Based Dose Response HTS to Identify Inhibitors of 5'UTR Stem-Loop Driven Prion Protein mRNA Translation in H4 Neuroglioblastoma Cells. [Related pubchem assays: 1827 (Project Summary), 1813 (Primary HTS)]; assay type: functional
# Chain of Cytochrome P450 2C9 (P11712 whole entry): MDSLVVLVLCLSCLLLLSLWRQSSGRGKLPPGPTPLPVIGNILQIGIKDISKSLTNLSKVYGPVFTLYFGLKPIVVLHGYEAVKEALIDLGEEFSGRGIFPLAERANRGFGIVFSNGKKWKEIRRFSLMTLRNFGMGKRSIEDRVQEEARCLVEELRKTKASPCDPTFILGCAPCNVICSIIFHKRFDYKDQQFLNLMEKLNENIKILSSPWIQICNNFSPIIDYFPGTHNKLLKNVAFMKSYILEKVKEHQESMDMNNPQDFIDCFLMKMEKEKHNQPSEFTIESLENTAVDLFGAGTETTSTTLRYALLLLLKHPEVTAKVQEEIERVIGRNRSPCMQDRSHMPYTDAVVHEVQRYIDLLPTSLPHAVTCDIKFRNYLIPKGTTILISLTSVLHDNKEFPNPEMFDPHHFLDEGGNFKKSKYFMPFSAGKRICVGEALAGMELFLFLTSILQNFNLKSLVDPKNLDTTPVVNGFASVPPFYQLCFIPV
# Chain of Cytochrome P450 2C19 (P33261 whole entry): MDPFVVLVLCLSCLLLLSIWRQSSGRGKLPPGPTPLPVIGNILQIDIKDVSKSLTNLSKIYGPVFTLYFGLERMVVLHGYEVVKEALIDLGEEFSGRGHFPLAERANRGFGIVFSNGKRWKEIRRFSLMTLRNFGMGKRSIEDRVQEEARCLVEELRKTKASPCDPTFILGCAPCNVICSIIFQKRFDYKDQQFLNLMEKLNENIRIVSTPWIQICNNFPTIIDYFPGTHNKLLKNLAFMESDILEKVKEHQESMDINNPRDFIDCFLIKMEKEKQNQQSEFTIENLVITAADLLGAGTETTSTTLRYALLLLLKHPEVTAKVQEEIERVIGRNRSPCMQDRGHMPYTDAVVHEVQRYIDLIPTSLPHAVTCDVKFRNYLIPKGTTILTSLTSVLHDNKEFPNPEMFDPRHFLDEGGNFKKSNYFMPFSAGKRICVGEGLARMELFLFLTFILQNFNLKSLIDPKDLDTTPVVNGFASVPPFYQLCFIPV
# Chain of Cytochrome P450 3A4 (P08684 whole entry): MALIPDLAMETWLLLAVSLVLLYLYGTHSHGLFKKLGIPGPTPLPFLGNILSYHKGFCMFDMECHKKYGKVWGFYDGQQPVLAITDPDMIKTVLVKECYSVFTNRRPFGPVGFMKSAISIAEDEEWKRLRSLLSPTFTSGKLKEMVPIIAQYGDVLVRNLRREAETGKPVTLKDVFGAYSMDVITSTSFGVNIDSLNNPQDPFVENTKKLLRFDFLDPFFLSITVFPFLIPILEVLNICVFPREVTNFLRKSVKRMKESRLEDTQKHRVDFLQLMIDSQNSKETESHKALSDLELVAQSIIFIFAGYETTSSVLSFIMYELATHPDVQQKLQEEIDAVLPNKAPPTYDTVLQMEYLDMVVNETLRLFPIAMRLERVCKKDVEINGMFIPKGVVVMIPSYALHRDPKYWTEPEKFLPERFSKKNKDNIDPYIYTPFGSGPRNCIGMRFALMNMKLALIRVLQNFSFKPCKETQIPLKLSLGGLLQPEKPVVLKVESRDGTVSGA
compound,measurement,setting,value
Nc1ccc(S(=O)(=O)NNC(=O)C(=O)NNc2ccccc2)cc1,EC50,[1],1.48 µM (active)
same,EC50,[2],750 nM (active)
same,EC50,[3],1.96 µM (active)
same,EC50,[4],> 38 µM (not active)
CC1CCCN(C(=O)c2cccc(S(=O)(=O)Nc3cc(C(F)(F)F)ccc3Cl)c2)C1 (centres undefined),EC50,[1],> 150 µM (inactive)
same,EC50,[4],> 38 µM (not active)
Cc1cc(C)cc(N(C(=O)c2ccccn2)C(C(=O)NC2CCCCC2)c2cccs2)c1 (centres undefined),AC50,Cytochrome P450 2C9,15.8 µM (inconclusive)
same,AC50,Cytochrome P450 2C19,17.8 µM (inconclusive)
O=C(CCC(=O)Nc1ccccc1Cl)NNS(=O)(=O)c1ccc(Cl)cc1,EC50,[1],> 160 µM (inactive)
same,EC50,[4],> 38 µM (not active)
NS(=O)(=O)c1cc(C(=O)O)c(O)c2ccccc12,AC50,Cytochrome P450 2C9,3.98 µM (inconclusive)
O=c1c(-c2cccs2)nc2cnc(N3CCOCC3)nc2n1CCc1ccccc1,AC50,Cytochrome P450 3A4,12.6 µM (inconclusive)
N#CCCn1c(=O)c(-c2cccs2)nc2cnc(Oc3cccc(Cl)c3)nc21,AC50,Cytochrome P450 2C9,6.31 µM (inconclusive)
same,AC50,Cytochrome P450 3A4,7.94 µM (inconclusive)
CCCOc1cccc(C(=O)Nc2cccnc2)c1,EC50,[1],> 150 µM (inactive)
same,EC50,[4],> 38 µM (not active)
Cc1ccc(CS(=O)(=O)CCC(=O)NCCCOC(C)C)cc1,AC50,Cytochrome P450 3A4,35.5 µM (inconclusive)
Nc1n[nH]c2nc3ccccc3nc12 [QUINOXALINE1],AC50,Cytochrome P450 3A4,0.126 µM (inconclusive)
CN1C[C@H](CO)C=C2c3cccc4[nH]cc(c34)C[C@@H]21,AC50,Cytochrome P450 3A4,12.6 µM (inconclusive)
COc1ccc(NC(=O)c2cccs2)c([N+](=O)[O-])c1,AC50,Cytochrome P450 2C9,7.94 µM (inconclusive)
CC(C)NC(=O)N1CCCC2(CCN(C(=O)c3cccn3C)CC2)C1,AC50,Cytochrome P450 3A4,25.1 µM (inconclusive)
Cc1cc(C(F)(F)F)n2nc(-c3cnn(C)c3C(F)(F)F)cc2n1,AC50,Cytochrome P450 2C9,7.08 µM (inconclusive)
same,AC50,Cytochrome P450 3A4,17.8 µM (inconclusive)
COc1ccc2c(c1)CCN=C2Cc1ccc(OC)c(OC)c1,EC50,[5],> 120 µM (not active)
same,EC50,[6],> 120 µM (not active)
same,EC50,[7],> 120 µM (not active)
same,EC50,[1],66.8 µM (active)
same,EC50,[4],> 38 µM (not active)
CS(=O)(=O)c1ccc(-c2cc(Br)sc2-c2ccc(F)cc2)cc1 [DUP-697],AC50,Cytochrome P450 3A4,20 µM (inconclusive)
CCOC(=O)c1sc(Nc2nc3c(OC)cccc3s2)nc1C,EC50,[1],48.9 µM (active)
same,EC50,[4],2.8 µM (active)
O=C(Cn1nnc2ccccc21)N/N=C\C=C\c1ccccc1,AC50,Cytochrome P450 2C9,12.6 µM (inconclusive)
same,AC50,Cytochrome P450 2C19,14.1 µM (inconclusive)
CC(C)=NO[C@@H](C)c1cc(-c2c(C)cc(C)cc2C)no1,AC50,Cytochrome P450 2C19,0.631 µM (inconclusive)
same,AC50,Cytochrome P450 3A4,3.16 µM (inconclusive)
COc1cccc(Nc2ncc3nc(C)c(=O)n(CCc4ccccc4)c3n2)c1,AC50,Cytochrome P450 2C9,3.16 µM (inconclusive)
Cc1ccc(OCCCC(=O)NCc2ccco2)cc1,AC50,Cytochrome P450 3A4,17.8 µM (inconclusive)
Cc1cc(C)nc(NC(=O)c2cccc([N+](=O)[O-])c2C)n1,AC50,Cytochrome P450 2C9,11.2 µM (inconclusive)
C1CNCCOCCNCCN1,AC50,Cytochrome P450 2C9,17.8 µM (inconclusive)
